# Earlier results, collected in patent publication US20110124713A1, “SAM-II RIBOSWITCH AND USES THEREOF” (The Regents of the University of Colorado, A body Corporate, priority 2007, published 2011).
# Tested on: SAM-II riboswitch
# Settings: absence vs presence of SAM; nucleotides G8-U12 in L1
compound,measurement,value
"C[S+](CC[C@H](N)C(=O)O)C[C@H]1O[C@@H](n2cnc3c(N)ncnc32)[C@H](O)[C@@H]1O (stereo partly shown) [SAM, S-adenosylmethionine]",ligand-dependent protections in in-line probing,strong ligand-dependent protections
